Data set [1] deals with HepG2. Description: cells. As to conditions: Homo sapiens, HepG2, 48 h.
Data set [2] addresses Acetylcholinesterase (Electrophorus electricus, UniProt O42275).
Description: Inhibition of electric eel AChE using acetylthiocholine chloride as substrate by spectrophotometer analysis
Data set [3] deals with Cholinesterase (Equus caballus, UniProt P81908).
Description: Inhibition of equine serum BChE using butyrylthiocholine chloride as substrate by spectrophotometer analysis
Data set [4] in a line: Solubility of the compound. It is filed as physicochemical.

Bounds are passed on as bounds.

Chain of Cholinesterase (P81908 whole entry): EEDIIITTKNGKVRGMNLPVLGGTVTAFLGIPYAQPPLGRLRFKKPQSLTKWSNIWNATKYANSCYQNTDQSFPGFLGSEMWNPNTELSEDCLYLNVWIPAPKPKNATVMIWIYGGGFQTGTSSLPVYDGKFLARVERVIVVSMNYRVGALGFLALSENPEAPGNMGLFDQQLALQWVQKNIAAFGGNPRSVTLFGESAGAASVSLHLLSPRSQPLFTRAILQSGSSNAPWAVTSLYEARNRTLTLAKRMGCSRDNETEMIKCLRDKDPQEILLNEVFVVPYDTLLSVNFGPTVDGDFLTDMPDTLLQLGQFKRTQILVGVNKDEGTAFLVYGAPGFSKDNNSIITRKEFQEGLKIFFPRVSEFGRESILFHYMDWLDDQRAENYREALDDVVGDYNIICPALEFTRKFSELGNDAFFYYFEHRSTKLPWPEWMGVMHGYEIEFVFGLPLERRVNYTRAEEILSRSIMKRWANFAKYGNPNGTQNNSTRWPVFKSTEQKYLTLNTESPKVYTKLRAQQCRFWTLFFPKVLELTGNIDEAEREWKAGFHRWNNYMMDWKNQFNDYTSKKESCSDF
Chain of Acetylcholinesterase (O42275 whole entry): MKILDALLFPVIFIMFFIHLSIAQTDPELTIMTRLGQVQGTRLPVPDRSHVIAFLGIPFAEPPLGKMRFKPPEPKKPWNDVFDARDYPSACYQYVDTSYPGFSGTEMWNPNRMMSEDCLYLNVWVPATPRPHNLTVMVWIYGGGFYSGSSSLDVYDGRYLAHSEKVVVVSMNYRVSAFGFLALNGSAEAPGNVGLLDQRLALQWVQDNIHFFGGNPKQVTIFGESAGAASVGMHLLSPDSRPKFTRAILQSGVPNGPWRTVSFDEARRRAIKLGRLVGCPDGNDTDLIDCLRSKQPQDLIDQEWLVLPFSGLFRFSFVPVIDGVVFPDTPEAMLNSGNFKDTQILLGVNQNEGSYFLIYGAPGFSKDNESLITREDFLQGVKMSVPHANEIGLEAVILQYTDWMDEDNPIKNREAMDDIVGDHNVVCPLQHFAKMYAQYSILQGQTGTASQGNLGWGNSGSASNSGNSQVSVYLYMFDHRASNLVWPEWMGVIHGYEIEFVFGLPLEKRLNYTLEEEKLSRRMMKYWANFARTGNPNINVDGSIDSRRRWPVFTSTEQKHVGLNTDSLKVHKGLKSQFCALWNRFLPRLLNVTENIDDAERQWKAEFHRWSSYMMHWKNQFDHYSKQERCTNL

For the compound `NCCCNCCCCNCC(=O)Nc1cccc2ccccc12`, the IC50 is > 100 µM in data set [1], > 50 µM in data set [2] and 47.5 µM in data set [3].

As to `NCCCCNCC(=O)Nc1cccc2c1C(=O)c1ccccc1C2=O`, the IC50 is 24.2 µM in data set [1], 1.5 µM in data set [2] and > 50 µM in data set [3].

Turning to `CN(C)CCNCC(=O)Nc1c2ccccc2cc2ccccc12`, the IC50 in data set [1] is > 100 µM; in data set [2], > 50 µM; in data set [3], 0.161 µM.

With `NCCCNCCCCNCCCNCC(=O)Nc1cccc2c1C(=O)c1ccccc1C2=O`, the figures for the IC50 in data set [1], in data set [2] and in data set [3] were 11.5 µM, 7.22 µM and > 50 µM, respectively.

With `CCN(CC)CC(=O)Nc1c2ccccc2cc2ccccc12.Cl`, the solubility entry in data set [4] is “Insoluble”.

In the case of `O=C(CNCCCO)Nc1cccc2ccccc12`, the IC50 was > 100 µM in data set [1], > 50 µM in data set [2] and > 50 µM in data set [3].

Consider `O=C(CNCCCO)Nc1c2ccccc2cc2ccccc12`, for which the IC50 in data set [1] is > 100 µM; in data set [2], > 50 µM; in data set [3] it was 0.502 µM.

Regarding `NCCCNCCCCNCC(=O)Nc1cccc2c1C(=O)c1ccccc1C2=O`, the values for the IC50 in data set [1], in data set [2] and in data set [3] were 15.6 µM, 2.63 µM and 33 µM, respectively.

As to `NCCCNCCCCNCCCNCC(=O)Nc1c2ccccc2cc2ccccc12`, the IC50 was > 100 µM in data set [1], > 50 µM in data set [2] and 0.657 µM in data set [3].

Consider `NCCCNCC(=O)Nc1c2ccccc2cc2ccccc12`, for which the IC50 in data set [1] is > 100 µM; in data set [2] it was > 50 µM; in data set [3] it was 0.28 µM.

In turn, `O=C1c2c(O)ccc(O)c2C(=O)c2c(NCCNCCO)ccc(NCCNCCO)c21` [MITOXANTRONE] came in with an IC50 in data set [1] of 11.1 µM.

`CN(C)CCNCC(=O)Nc1cccc2ccccc12`: the IC50 in data set [1] was > 100 µM; in data set [2], > 50 µM; in data set [3], 4.39 µM.

`NCCCNCCCCNCC(=O)Nc1c2ccccc2cc2ccccc12`: the values for the IC50 in data set [1], in data set [2] and in data set [3] were > 100 µM, 25.1 µM and 0.164 µM, respectively.

Consider `O=C(CNCCCO)Nc1cccc2c1C(=O)c1ccccc1C2=O`, for which the IC50 in data set [1] is 23 µM; in data set [2], 11.1 µM; in data set [3], > 50 µM.

`NCCCNCCCNCC(=O)Nc1c2ccccc2cc2ccccc12`: the IC50 in data set [1] is > 100 µM; in data set [2], > 50 µM; in data set [3] it was 0.305 µM.

Consider `NCCCCCCNCC(=O)Nc1c2ccccc2cc2ccccc12`, for which the values for the IC50 in data set [1], in data set [2] and in data set [3] were > 100 µM, 2.74 µM and 0.023 µM, respectively.

Consider `Cl.O=C(CNC1CC1)Nc1c2ccccc2cc2ccccc12`, for which the solubility entry in data set [4] is “Insoluble”.

Consider `NCCCNCCCCNCCCNCC(=O)Nc1cccc2ccccc12`, for which the IC50 is > 100 µM in data set [1], > 50 µM in data set [2] and > 50 µM in data set [3].

As to `NCCCCNCC(=O)Nc1cccc2ccccc12`, the IC50 in data set [1] is > 100 µM; in data set [2], > 50 µM; in data set [3] it was 10.3 µM.

Take `NCCCCNCC(=O)Nc1c2ccccc2cc2ccccc12`: the IC50 in data set [1] was > 100 µM; in data set [2], > 50 µM; in data set [3], 0.016 µM.

A word on the IC50: it is the concentration that gives 50% inhibition. Low readings indicate inhibition by little substance, high ones a need for much substance.

The values are drawn from ChEMBL document CHEMBL3286236, “Novel aromatic-polyamine conjugates as cholinesterase inhibitors with notable selectivity toward butyrylcholinesterase” (Bioorg Med Chem, 2014).
